For one data set, the system named is MT-4 cells. Kind of data set: in vitro. Particulars: uninfected MT-4 cells, same protocol as Test A, 5 days, CellTiter-Glo. A digest of the protocol:
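Cytoprotection read-out: CellTiter-Glo chemiluminescence after 5 days at 37 °C of HIV-IIIb-infected MT-4 cells (m.o.i. 0.003) with compound in 10-point 3-fold dilutions, quadruplicate, 10% FBS. Cytotoxicity (CC50) measured identically without virus.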
(In ATP-based viability assays light output follows the ATP content of the culture.)

The subject of the next data set is HIV-IIIb. The experiment in a line: Test A: Antiviral assay in MT4 cells. Format: cell-based, HIV-1. The note with it: percent inhibition of virus-induced cell killing, from dose response curve at 2 uM drug; MT-4 cells infected with HIV-IIIb, 5 days, CellTiter-Glo.

For `CCC(C(=O)N[C@@H](Cc1cc(F)cc(F)c1)c1ncccc1-c1ccc(F)c(C(N)=O)c1)n1cc(C(C)=O)c2ccccc21` (stereo partly drawn) [Example 544, 5-(2-((1S)-1-(2-(3-acetyl-1H-indol-1-yl)butanamido)-2-(3,5-difluorophenyl)ethyl)pyridin-3-yl)-2-fluorobenzamide], in the data set with MT-4 cells, the CC50 (commonly the concentration that lowers cell viability or growth by half) was greater than 53.2 µM. Moreover, in the data set on HIV-IIIb, the % inhibition – broadly, the change of the read-out against control, counted positive when it falls – at 2 μM was 75%.

The compound `CC(C)CC(=O)NS(=O)(=O)c1ccc(-c2cccnc2C(Cc2cc(F)cc(F)c2)NC(=O)Cn2nc(C(F)F)c3c2C(F)(F)C2C[C@H]32)cc1` (stereo partly drawn) [Example 427, (S)—N-(1-(3-(4-(N-(3-methylbutanoyl)sulfamoyl)phenyl)-pyridin-2-yl)-2-(3,5-difluorophenyl)ethyl)-2-(3-(difluoromethyl)-5,6-dihydro-4,5-(methano)-6,6-difluoro-cyclopenta[c]pyrazol-1(4H)-yl)acetamide] yielded a CC50 with MT-4 cells of 32.8 µM. Further, the “% inhibition at 2 μM” value in the data set on HIV-IIIb is reported as 0%.

With `NC(=O)c1cc(-c2cccnc2[C@H](Cc2cc(F)cc(F)c2)NC(=O)Cn2nc(C(F)(F)F)c3c2[C@H]2C[C@H]2C3)ccc1F` (single isomer, unassigned) [Example 186], the CC50 with MT-4 cells is 16.8 µM. The “% inhibition at 2 μM” value with HIV-IIIb was 80%.

`CCC(C(=O)N[C@@H](Cc1cc(F)cc(F)c1)c1ncccc1-c1ccc(F)c(C(N)=O)c1)n1nc(C(F)F)cc1C(F)F` (single isomer, unassigned) [Example 484]: half-maximal cytotoxicity in the data set on MT-4 cells (CC50) was put at 27.4 µM. Besides, the “% inhibition at 2 μM” value with HIV-IIIb was 25%.

With “(S)—N-(1-(3-(4-(pyrrolidinylcarbonylamino)phenyl)-pyridin-2-yl)-2-(3,5-difluorophenyl)ethyl)-2-(3-(difluoromethyl)-5,6-dihydro-4,5-(methano)-6,6-difluoro-cyclopenta[c]pyrazol-1(4H)-yl)acetamide [Example 80]”, the CC50 in the data set on MT-4 cells is greater than 53.2 µM. For the same compound, the “% inhibition at 2 μM” value in the data set on HIV-IIIb came out at 0%.

On to `CC12CCC(c3c(C(F)(F)F)nn(CC(=O)N[C@@H](Cc4cc(F)cc(F)c4)c4ncccc4-c4ccc(F)c(C(N)=O)c4)c31)C2(C)C` (stereo partly drawn) [Example 93B, (S)-5-(2-(2-(3,5-difluorophenyl)-1-(2-(D-4,5,6,7-Tetrahydro-3-trifluoromethyl-7,8,8-trimethyl-1H-4,7-(methano)indazol-1-yl)acetamido)ethyl)pyridin-3-yl)-2-fluorobenzamide], for which the CC50 in the data set on MT-4 cells stood at 8.14 µM. Further, the “% inhibition at 2 μM” value in the data set with HIV-IIIb is recorded as 0%.

In the data set with MT-4 cells, `CCCCC(C(=O)N[C@@H](Cc1cc(F)cc(F)c1)c1ncccc1-c1ccc(F)c(C(N)=O)c1)n1ccc(C(F)(F)F)n1` (single isomer, unassigned) [Example 488] had a CC50 of 12.4 µM. In the data set with HIV-IIIb, the “% inhibition at 2 μM” value was 8%.

As for `Cc1cc(-c2cccnc2[C@H](Cc2cc(F)cc(F)c2)NC(=O)Cc2c[nH]c3ccc(F)cc23)cnc1F` [Example 399], the CC50 with MT-4 cells is 12.8 µM. In addition, the “% inhibition at 2 μM” value in the data set with HIV-IIIb came out at 31%.

In the data set with MT-4 cells, `O=C(Cn1nc(C(F)F)c2c1C1CC1CC2)NC(Cc1cc(F)cc(F)c1)c1ncncc1-c1cnc2[nH]ccc2c1` (single isomer, unassigned) [Example 348] showed a CC50 of 14.2 µM. The “% inhibition at 2 μM” value in the data set with HIV-IIIb stood at 103%.

In turn, `NC(=O)c1cc(-c2cccnc2[C@H](Cc2cc(F)cc(F)c2)NC(=O)Cn2nc(C(F)(F)F)c3c2C(O)C2CC32)ccc1F` (stereo partly drawn) [Example 155, 5-(2-((1S)-2-(3,5-difluorophenyl)-1-(2-(5-hydroxy-3-(trifluoromethyl)-3b,4,4a,5-tetrahydro-1H-cyclopropa[3,4]cyclopenta[1,2-c]pyrazol-1-yl)acetamido)ethyl)pyridin-3-yl)-2-fluorobenzamide] registered a CC50 in the data set with MT-4 cells of 37 µM. In the data set on HIV-IIIb, the “% inhibition at 2 μM” value is given as 97%.

In the data set on MT-4 cells, `Cc1cc2ncn(C(CC(F)(F)F)C(=O)N[C@@H](Cc3cc(F)cc(F)c3)c3ncccc3-c3ccc(F)c(C(N)=O)c3)c2cc1C` (single isomer, unassigned) [Example 571] had a CC50 of 34.8 µM. The “% inhibition at 2 μM” value with HIV-IIIb came out at 2%.

For the compound `CCC(C(=O)N[C@@H](Cc1cc(F)cc(F)c1)c1ncccc1-c1ccc(F)c(C(N)=O)c1)n1nc(C(F)(F)F)c2c1CCCC2` (single isomer, unassigned) [Example 531], half-maximal cytotoxicity with MT-4 cells (CC50) was put at 7.4 µM. In the data set on HIV-IIIb, the “% inhibition at 2 μM” value amounted to 98%.

In turn, `CC(C)CC(C(=O)N[C@@H](Cc1cc(F)cc(F)c1)c1ncccc1-c1ccc(F)c(C(N)=O)c1)n1ccc(C(F)(F)F)n1` (single isomer, unassigned) [Example 582] had a CC50 in the data set with MT-4 cells of 14.4 µM. Moreover, in the data set on HIV-IIIb, the “% inhibition at 2 μM” value was 5%.

As for `CNS(=O)(=O)c1ccc(-c2cccnc2C(Cc2cc(F)cc(F)c2)NC(=O)Cn2nc(C(F)F)c3c2C(F)(F)C2C[C@H]32)cc1` (stereo partly drawn) [Example 429, (S)—N-(1-(3-(4-(N-methylsulfamoyl)phenyl)-pyridin-2-yl)-2-(3,5-difluorophenyl)ethyl)-2-(3-(difluoromethyl)-5,6-dihydro-4,5-(methano)-6,6-difluoro-cyclopenta[c]pyrazol-1(4H)-yl)acetamide], the CC50 in the data set with MT-4 cells came to 41.6 µM. For the same compound, the “% inhibition at 2 μM” value with HIV-IIIb was 57%.

On to `NC(=O)c1cccc(-c2cccnc2[C@H](Cc2cc(F)cc(F)c2)NC(=O)CC2C(=O)Nc3ccccc32)c1` (stereo partly drawn) [Example 192, 3-(2-((1S)-2-(3,5-difluorophenyl)-1-(2-(2-oxoindolin-3-yl)acetamido)ethyl)pyridin-3-yl)benzamide], for which the CC50 with MT-4 cells was found to be 47.6 µM. Moreover, the “% inhibition at 2 μM” value with HIV-IIIb is reported as 2%.

`CCC(C(=O)N[C@@H](Cc1cc(F)cc(F)c1)c1ncccc1-c1ccc(F)c(C(N)=O)c1)n1ccc(C(F)(F)F)n1` (single isomer, unassigned) [Example 573]: in the data set on MT-4 cells, the CC50 worked out at 30.1 µM. Besides, in the data set on HIV-IIIb, the “% inhibition at 2 μM” value amounted to 18%.

With `NC(=O)c1cc(-c2cccnc2[C@H](Cc2cc(F)cc(F)c2)NC(=O)Cn2nc(C(F)(F)F)c3c2C(O)C2CC32)ccc1F` (stereo partly drawn) [Example 156, 5-(2-((1S)-2-(3,5-difluorophenyl)-1-(2-(5-hydroxy-3-(trifluoromethyl)-3b,4,4a,5-tetrahydro-1H-cyclopropa[3,4]cyclopenta[1,2-c]pyrazol-1-yl)acetamido)ethyl)pyridin-3-yl)-2-fluorobenzamide], in the data set with MT-4 cells, the CC50 was found to be 39.2 µM. For the same compound, the “% inhibition at 2 μM” value with HIV-IIIb worked out at 30%.

`CCC(C(=O)N[C@@H](Cc1cc(F)cc(F)c1)c1ncccc1-c1ccc(F)c(C(N)=O)c1)n1cc(C(C)=O)c2ccccc21` (stereo partly drawn) [Example 554, 5-(2-((1S)-1-(2-(3-acetyl-1H-indol-1-yl)butanamido)-2-(3,5-difluorophenyl)ethyl)pyridin-3-yl)-2-fluorobenzamide] gave a CC50 in the data set on MT-4 cells of 48.9 µM. In the data set on HIV-IIIb, the “% inhibition at 2 μM” value was found to be 63%.

As for `CCC(C(=O)N[C@@H](Cc1cc(F)cc(F)c1)c1ncccc1-c1ccc(F)c(C(N)=O)c1)n1ccnc1C(C)C` (single isomer, unassigned) [Example 586], the CC50 with MT-4 cells was greater than 53.2 µM. Besides, the “% inhibition at 2 μM” value in the data set with HIV-IIIb is reported as 1%.

As to “(S)-5-(2-(1-(2-(5-(difluoromethyl)-3-phenyl-1H-pyrazol-1-yl)acetamido)-2-(3,5-difluorophenyl)ethyl)pyridin-3-yl)-2-fluorobenzamide [Example 240C]”, the CC50 with MT-4 cells stood at 34.9 µM. Further, the “% inhibition at 2 μM” value in the data set on HIV-IIIb is reported as 0%.

For the compound `O=C(Cn1nc(C(F)F)c2c1C1CC1CC2)NC(Cc1cc(F)cc(F)c1)c1ncncc1-c1cnc2[nH]ccc2c1` (single isomer, unassigned) [Example 347], the CC50 with MT-4 cells came to 19.4 µM. For the same compound, in the data set with HIV-IIIb, the “% inhibition at 2 μM” value came to 1%.

Values taken from patent US9540343B2 (Gilead Sciences, Inc., priority 2011, dated 2017).
